Measured values from article PMC8594587 (Journal of medicinal chemistry, 2021).

Legend:
[1] = tested on: HIV-2 ROD; test: Anti-HIV-2 ROD activity in MT-4 cells, MTT method; format: cell-based; details: Human immunodeficiency virus 2, MT4, read-out: EC50 ROD
[2] = tested on: HIV-1 F227L+V106A; format: cell-based; details: Human immunodeficiency virus 1, MT4, read-out: EC50 F227L+V106A
[3] = tested on: HIV-1 K103N+Y181C (RES056); test: microbe, parasite or virus in culture; format: cell-based; details: Human immunodeficiency virus 1, MT4, read-out: EC50 RES056
[4] = Acute toxicity test in Kunming mice; format: in vivo; details: Kunming, mouse, in vivo, po
[5] = tested on: Kunming mice; test: Acute toxicity test in Kunming mice; format: in vivo; details: Kunming mice
[6] = in vivo; details: Sprague-Dawley, rat, iv, 2 mg/kg

Cc1cc(C#N)cc(C)c1Oc1nc(NC2CCN(Cc3ccc(S(C)(=O)=O)cc3)CC2)ncc1-c1ccco1 [Compound 13b, 4-((5-(furan-2-yl)-2-((1-(4-(methylsulfonyl)benzyl)piperidin-4-yl)amino)pyrimidin-4-yl)oxy)-3,5-dimethylbenzonitrile]
EC50 [1]: > 7.46 µM

Cc1cc(C#N)cc(C)c1Oc1nc(Nc2ccc(C#N)cc2)nc(N)c1Br [ETR, etravirine]
EC50 [2]: 0.0269 ± 0.0023 µM | EC50 [3]: 0.0522 ± 0.0242 µM

Cc1cc(C#N)cc(C)c1Oc1nc(NC2CCN(Cc3ccc(C(N)=O)cc3)CC2)ncc1-c1ccncc1 [Compound 16c, 4-((4-((4-(4-cyano-2,6-dimethylphenoxy)-5-(pyridin-4-yl)pyrimidin-2-yl)amino)piperidin-1-yl)methyl)benzamide]
LD50 at 2 weeks [4]: > 2000 mg/kg | acute toxicity, tolerability ([5]; single oral dose): well-tolerated up to a dose of 2000 mg/kg with no acute toxicity | body weight change ([5]; single oral dose 2000 mg/kg): no abnormality of body weight changed | toxic symptoms or mortality ([5]; single oral dose 2000 mg/kg, subsequent two weeks): did not exhibit any toxic symptoms or mortality | Tmax [6]: 1.98 min | EC50 [1]: > 36 µM

Cc1cc(C#N)cc(C)c1Oc1nc(NC2CCN(Cc3ccc(C(N)=O)cc3)CC2)ncc1-c1ccoc1 [Compound 14c, 4-((4-((4-(4-cyano-2,6-dimethylphenoxy)-5-(furan-3-yl)pyrimidin-2-yl)amino)piperidin-1-yl)methyl)benzamide]
EC50 [1]: > 182 µM

Cc1cc(C#N)cc(C)c1Oc1nc(NC2CCN(Cc3ccc(S(N)(=O)=O)cc3)CC2)ncc1-c1ccsc1 [Compound 12a, 4-((4-((4-(4-cyano-2,6-dimethylphenoxy)-5-(thiophen-3-yl)pyrimidin-2-yl)amino)piperidin-1-yl)methyl)benzenesulfonamide]
EC50 [1]: > 6.12 µM

Cc1cc(C#N)cc(C)c1Oc1nc(NC2CCN(Cc3ccc(S(N)(=O)=O)cc3)CC2)ncc1-c1cccs1 [Compound 11a, 4-((4-((4-(4-cyano-2,6-dimethylphenoxy)-5-(thiophen-2-yl)pyrimidin-2-yl)amino)piperidin-1-yl)methyl)benzenesulfonamide]
EC50 [1]: ≥ 33.4 µM
